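All cell lines were grown in 96-well plates and treated with compound for 48 hours. Here, GI50 denotes the concentration required for 50% inhibition of growth.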 Active and inactive are the calls of the source. Cut-off read from the data, not from the text of the source: active = GI50 up to about 1.1 µM and inactive = higher.
How the values were obtained:
Test in all cases: NCI anticancer screen, dose series, 48 h
[1] = system: ACHN
[2] = system: COLO 205
[3] = system: EKVX
[4] = system: HCC 2998
[5] = system: HCT-116
[6] = system: HCT-15
[7] = system: HL-60
[8] = system: HOP-62
[9] = system: IGROV-1
[10] = system: K562
[11] = system: KM12
[12] = system: M14
[13] = system: MCF7
[14] = system: MDA-MB-231
[15] = system: MDA-MB-435
[16] = system: MDA-N
[17] = system: MOLT-4
[18] = system: NCI-H522
[19] = system: NCI/ADR-RES
[20] = system: OVCAR-5
[21] = system: OVCAR-8
[22] = system: PC-3
[23] = system: RPMI-8226
[24] = system: SF-268
[25] = system: SF-295
[26] = system: SF-539
[27] = system: SK-MEL-28
[28] = system: SK-MEL-5
[29] = system: SK-OV-3
[30] = system: SN12C
[31] = system: SNB-19
[32] = system: SNB-75
[33] = system: SR
[34] = system: SW-620
[35] = system: T47D
[36] = system: TK-10
[37] = system: U-251
[38] = system: UACC-257
[39] = system: UO-31
[40] = system: 786-0
[41] = system: A498
[42] = system: A549
[43] = system: CAKI-1
[44] = system: CCRF-CEM
[45] = system: DU-145
[46] = system: HOP-92
[47] = system: HT-29
[48] = system: Hs-578T
[49] = system: LOX IMVI
[50] = system: NCI-H226
[51] = system: NCI-H23
[52] = system: NCI-H460
[53] = system: OVCAR-3
[54] = system: OVCAR-4
[55] = system: RXF 393
[56] = system: SK-MEL-2
[57] = system: UACC-62
[58] = system: Malme-3M

For `O=c1c2ccccc2nc2n1CCc1c-2[nH]c2cc3c(cc12)OCO3`, which GI50 [1] is on record?
The GI50 was 3.98 µM (inactive).

What about the GI50 [2] of the same compound?
The GI50 was > 25 µM (inactive).

And the GI50 [3]?
The GI50 was > 25 µM (inactive).

What about the GI50 [4] of the same compound?
Its GI50 is > 25 µM (inactive).

What about the GI50 [5] of the same compound?
Its GI50 is 3.32 µM (inactive).

And the GI50 [6]?
The GI50 was 8.65 µM.

What about the GI50 [7] of the same compound?
The GI50 was > 25 µM (inactive).

What about the GI50 [8] of the same compound?
Its GI50 is 9.42 µM (inactive).

And the GI50 [9]?
The GI50 was > 25 µM (inactive).

And the GI50 [10]?
Its GI50 is > 25 µM (inactive).

And the GI50 [11]?
The GI50 was 15.7 µM (inactive).

What about the GI50 [12] of the same compound?
The GI50 was > 25 µM (inactive).

What about the GI50 [13] of the same compound?
Its GI50 is > 25 µM (inactive).

And the GI50 [14]?
Its GI50 is 9.71 µM (inactive).

And the GI50 [15]?
The GI50 was 13.6 µM (inactive).

What about the GI50 [16] of the same compound?
The GI50 was 17.6 µM (inactive).

And the GI50 [17]?
Its GI50 is > 25 µM (inactive).

What about the GI50 [18] of the same compound?
Its GI50 is 5.4 µM (inactive).

And the GI50 [19]?
Its GI50 is > 25 µM (inactive).

What about the GI50 [20] of the same compound?
Its GI50 is > 25 µM (inactive).

What about the GI50 [21] of the same compound?
Its GI50 is 5.74 µM (inactive).

What about the GI50 [22] of the same compound?
The GI50 was > 25 µM (inactive).

What about the GI50 [23] of the same compound?
Its GI50 is > 25 µM (inactive).

What about the GI50 [24] of the same compound?
The GI50 was 5.41 µM (inactive).

And the GI50 [25]?
Its GI50 is 5.55 µM (inactive).

What about the GI50 [26] of the same compound?
Its GI50 is 5.77 µM (inactive).

And the GI50 [27]?
Its GI50 is > 25 µM (inactive).

What about the GI50 [28] of the same compound?
The GI50 was 13.7 µM (inactive).

And the GI50 [29]?
Its GI50 is 6.95 µM (inactive).

And the GI50 [30]?
Its GI50 is > 25 µM (inactive).

What about the GI50 [31] of the same compound?
The GI50 was 5.11 µM (inactive).

What about the GI50 [32] of the same compound?
Its GI50 is 6.61 µM (inactive).

What about the GI50 [33] of the same compound?
The GI50 was > 25 µM (inactive).

And the GI50 [34]?
The GI50 was > 25 µM (inactive).

And the GI50 [35]?
The GI50 was > 25 µM (inactive).

And the GI50 [36]?
Its GI50 is > 25 µM (inactive).

What about the GI50 [37] of the same compound?
The GI50 was 7.28 µM (inactive).

What about the GI50 [38] of the same compound?
The GI50 was > 25 µM (inactive).

And the GI50 [39]?
The GI50 was > 25 µM (inactive).

For `C=CC(C)(C)C(=C)C(=O)Nc1ccccc1I`, which GI50 [40] is on record?
The GI50 was 2.29 µM (inactive).

What about the GI50 [41] of the same compound?
Its GI50 is > 100 µM (inactive).

And the GI50 [42]?
The GI50 was > 100 µM (inactive).

What about the GI50 [1] of the same compound?
Its GI50 is > 100 µM (inactive).

What about the GI50 [43] of the same compound?
Its GI50 is > 100 µM (inactive).

What about the GI50 [44] of the same compound?
The GI50 was 19.3 µM (inactive).

What about the GI50 [2] of the same compound?
The GI50 was > 100 µM (inactive).

And the GI50 [45]?
Its GI50 is > 100 µM (inactive).

And the GI50 [3]?
The GI50 was 83.9 µM (inactive).

And the GI50 [4]?
The GI50 was > 100 µM (inactive).

What about the GI50 [5] of the same compound?
Its GI50 is 81.8 µM (inactive).

What about the GI50 [6] of the same compound?
The GI50 was greater than 100 µM.

And the GI50 [8]?
The GI50 was > 100 µM (inactive).

What about the GI50 [46] of the same compound?
Its GI50 is > 100 µM (inactive).

What about the GI50 [47] of the same compound?
The GI50 was > 100 µM (inactive).

What about the GI50 [48] of the same compound?
The GI50 was > 100 µM (inactive).

And the GI50 [10]?
Its GI50 is > 100 µM (inactive).

And the GI50 [11]?
Its GI50 is > 100 µM (inactive).

What about the GI50 [49] of the same compound?
The GI50 was 73.6 µM (inactive).

And the GI50 [12]?
The GI50 was > 100 µM (inactive).

What about the GI50 [13] of the same compound?
Its GI50 is > 100 µM (inactive).

And the GI50 [14]?
Its GI50 is > 100 µM (inactive).

What about the GI50 [15] of the same compound?
The GI50 was > 100 µM (inactive).

What about the GI50 [16] of the same compound?
Its GI50 is > 100 µM (inactive).

And the GI50 [50]?
The GI50 was > 100 µM (inactive).

And the GI50 [51]?
The GI50 was > 100 µM (inactive).

And the GI50 [52]?
Its GI50 is > 100 µM (inactive).

What about the GI50 [19] of the same compound?
Its GI50 is > 100 µM (inactive).

And the GI50 [53]?
Its GI50 is > 100 µM (inactive).

What about the GI50 [54] of the same compound?
The GI50 was > 100 µM (inactive).

And the GI50 [20]?
The GI50 was > 100 µM (inactive).

What about the GI50 [21] of the same compound?
Its GI50 is > 100 µM (inactive).

What about the GI50 [22] of the same compound?
Its GI50 is > 100 µM (inactive).

And the GI50 [23]?
Its GI50 is 98.4 µM (inactive).

And the GI50 [55]?
Its GI50 is > 100 µM (inactive).

And the GI50 [24]?
Its GI50 is > 100 µM (inactive).

What about the GI50 [25] of the same compound?
The GI50 was > 100 µM (inactive).

And the GI50 [27]?
Its GI50 is > 100 µM (inactive).

And the GI50 [56]?
The GI50 was > 100 µM (inactive).

What about the GI50 [28] of the same compound?
The GI50 was > 100 µM (inactive).

What about the GI50 [29] of the same compound?
Its GI50 is > 100 µM (inactive).

What about the GI50 [30] of the same compound?
Its GI50 is > 100 µM (inactive).

And the GI50 [31]?
The GI50 was > 100 µM (inactive).

And the GI50 [32]?
Its GI50 is > 100 µM (inactive).

And the GI50 [33]?
Its GI50 is 86.1 µM (inactive).

And the GI50 [34]?
Its GI50 is > 100 µM (inactive).

And the GI50 [35]?
The GI50 was > 100 µM (inactive).

And the GI50 [37]?
The GI50 was > 100 µM (inactive).

What about the GI50 [38] of the same compound?
Its GI50 is > 100 µM (inactive).

And the GI50 [57]?
Its GI50 is > 100 µM (inactive).

And the GI50 [39]?
Its GI50 is > 100 µM (inactive).

Which results are given for `O=C1NC(=S)N(c2ccccc2)C1=O`?
GI50 [40]: > 100 µM (inactive); GI50 [41]: > 100 µM (inactive); GI50 [42]: > 100 µM (inactive); GI50 [1]: > 100 µM (inactive); GI50 [43]: > 100 µM (inactive); GI50 [44]: > 100 µM (inactive); GI50 [2]: > 100 µM (inactive); GI50 [45]: > 100 µM (inactive); GI50 [3]: > 100 µM (inactive); GI50 [4]: > 100 µM (inactive); GI50 [5]: > 100 µM (inactive); GI50 [6]: > 100 µM; GI50 [7]: > 100 µM (inactive); GI50 [8]: > 100 µM (inactive); GI50 [46]: > 100 µM (inactive); GI50 [47]: > 100 µM (inactive); GI50 [48]: > 100 µM (inactive); GI50 [9]: > 100 µM (inactive); GI50 [10]: > 100 µM (inactive); GI50 [11]: > 100 µM (inactive); GI50 [49]: > 100 µM (inactive); GI50 [14]: > 100 µM (inactive); GI50 [15]: > 100 µM (inactive); GI50 [17]: > 100 µM (inactive); GI50 [58]: > 100 µM (inactive); GI50 [50]: > 100 µM (inactive); GI50 [51]: > 100 µM (inactive); GI50 [52]: > 100 µM (inactive); GI50 [18]: 3.79 µM (inactive); GI50 [19]: > 100 µM (inactive); GI50 [54]: > 100 µM (inactive); GI50 [20]: > 100 µM (inactive); GI50 [21]: > 100 µM (inactive); GI50 [22]: > 100 µM (inactive); GI50 [23]: > 100 µM (inactive); GI50 [55]: > 100 µM (inactive); GI50 [24]: > 100 µM (inactive); GI50 [25]: > 100 µM (inactive); GI50 [26]: > 100 µM (inactive); GI50 [27]: > 100 µM (inactive); GI50 [56]: > 100 µM (inactive); GI50 [28]: > 100 µM (inactive); GI50 [29]: > 100 µM (inactive); GI50 [30]: > 100 µM (inactive); GI50 [31]: > 100 µM (inactive); GI50 [32]: > 100 µM (inactive); GI50 [33]: > 100 µM (inactive); GI50 [34]: > 100 µM (inactive); GI50 [35]: > 100 µM (inactive); GI50 [36]: > 100 µM (inactive); GI50 [37]: > 100 µM (inactive); GI50 [38]: > 100 µM (inactive); GI50 [57]: > 100 µM (inactive); GI50 [39]: > 100 µM (inactive)

Source: ChEMBL document CHEMBL1201862, “PubChem BioAssay data set” (2004)
